Measurements from patent US20090130229A1, “Antitumor uses of compound” (Cell Therapeutics, Inc., priority 2002, published 2009).

Key:
Ret/MEN2A(C634W) = molecular target: T1, Ret/MEN2A(C634W) (Homo sapiens, UniProt P07949, C634W); assay: Ret autophosphorylation and expression in TT cells (Western blotting); assay type: cell-based; details: 24 h
T1 construct: endogenous in cells; host or cells: TT (human medullary thyroid carcinoma)
Description: FIG. 2. Effects of Cpd1 on human MTC cell lines harboring MEN2-associated RET mutants. A) Inhibition of Ret autophosphorylation. TT and MZ-CRC-1 cells, expressing respectively RET/MEN2A(C634W) and RET/MEN2B(M918T), were treated with the indicated concentrations of Cpd1, for 24 h. Control cells (C) received the solvent. Whole cell extracts were processed for Western blotting and probed with anti-pTyr and anti-Ret antibodies. […] B) Antiproliferative effect. TT and MZ-CRC-1 cells were treated with increasing concentrations of Cpd 1 for 7 days and then counted with a Coulter Counter.
(§1) The following human medullary thyroid carcinoma (MTC) cell lines were used in this study. The TT cell line derived from a MEN2A-associated MTC characterized by expression of the RET oncogene carrying the mutation C634W. […]
(§2) For whole-cell extract preparation, cells were lysed in sodium dodecyl sulfate (SDS) sample buffer (62.5 mM Tris-HCl (pH 6.8), 2% SDS) with 1 mM PMSF, 10 μg/ml pepstatin, 12.5 μg/ml leupeptin, 100 KIU aprotinin, 1 mM sodium orthovanadate, 1 mM sodium molybdate. Protein concentration was determined in appropriately diluted aliquots by the bicinchionic acid (BCA) method (Pierce, Rockford, Ill.), then samples were adjusted to a final concentration of 10% glycerol, 5% β-mercaptoethanol, 0.001% bromophenol blue. […]

PDGF-R = PDGF-R autophosphorylation and expression in whole cells (2N5A, Swiss 3T3); assay type: cell-based, mouse
Description: FIG. 5. Inhibition of PDGF-R autophosphorylation and expression in whole cells by Cpd 1. A): 2N5A cells (NIH3T3 transformed by the COL1A1/PDGFB rearrangement generating autocrine stimulation of PDGF-R) were treated with Cpd 1 at the indicated concentrations, for 72 h. Cell extracts were immunoprecipitated with anti-PDGF-R and subjected to Western blotting with anti-pTyr or anti-PDGF-R antibodies. B): Swiss 3T3 cells were serum starved for 24 h and then treated with Cpd1 at the indicated concentrations, for 18 h. After stimulation with 1 nM PDGF for 5 min, whole cell lysates were prepared and subjected to Western blotting with anti-pTyr or anti-PDGF-R. Protein loading by anti-actin blot is shown.
The following human medullary thyroid carcinoma (MTC) cell lines were used in this study. The TT cell line derived from a MEN2A-associated MTC characterized by expression of the RET oncogene carrying the mutation C634W. The MZ-CRC-1 cell line derived from MEN2B-associated MTC characterized by expression of the RET oncogene carrying the mutation M918T. TT cells were cultivated in Ham's F12 medium (BioWhittaker, Verviers, Belgium) supplemented with 15% fetal calf serum (FCS) (Life Technologies, Inc., Gaithersburg, Md.) whereas MZ-CRC-1 cells were grown in Dulbecco's modified Eagle's medium (DMEM) (BioWhittaker) supplemented with 10% FCS. The human papillary thyroid carcinoma cell line TPC-1 which was used as a model of Met overexpression, was routinely cultivated in DMEM with 10% FCS. N592 cells, derived from a human SCLC, were characterized by Kit activation through autocrine stimulation by the SCF ligand. N592 cells were cultured in RPMI 1640 supplemented with 10% FCS. The mouse SWISS3T3 and NIH3T3 fibroblasts were cultured in DMEM with 10% calf serum (Colorado Serum Company, Denver, Colo.). In addition, NIH3T3 cells transfected with different oncogenes were used. NIH3T3^MEN2A transfectants express the short isoform of the RET-MEN2A (C634R) oncogene; NIH3T3^KITΔ559 cells express KIT carrying the activating mutation Δ559 found in GISTs; NIH3T3^FGFR3(Y373C) express the FGF-R3 gene carrying the activating mutation Y373C found in a human multiple myeloma cell line. 2N5A cells are NIH3T3 cells-transformed by the COL1A1/PDGFB rearrangement generating autocrine stimulation of PDGF-R. All NIH3T3 transfectants were maintained in DMEM plus 5% calf serum in a 10% CO2 atmosphere.
For whole-cell extract preparation, cells were lysed in sodium dodecyl sulfate (SDS) sample buffer (62.5 mM Tris-HCl (pH 6.8), 2% SDS) with 1 mM PMSF, 10 μg/ml pepstatin, 12.5 μg/ml leupeptin, 100 KIU aprotinin, 1 mM sodium orthovanadate, 1 mM sodium molybdate. Protein concentration was determined in appropriately diluted aliquots by the bicinchionic acid (BCA) method (Pierce, Rockford, Ill.), then samples were adjusted to a final concentration of 10% glycerol, 5% β-mercaptoethanol, 0.001% bromophenol blue.
For immunoprecipitation experiments, cells were treated with Cpd1 or solvent for the indicated times. Cell monolayers were rinsed twice with cold phosphate-buffered saline plus 0.1 mM sodium orthovanadate and then left for 20 min on ice in lysis buffer (50 mM HEPES pH7.6, 150 mM NaCl, 10% glycerol, 1% Triton X-100, 1.5 mM MgCl2, 1 mM EGTA, 100 mM NaF, 10 mM sodium pyrophosphate, 10 μg/ml antipain, 20 μg/ml chymostatin, 10 μg/ml E64, 1 mg/ml pefabloc SC). […] Protein concentration was determined by the BCA reagent (Pierce). […]

NIH3T3^KITΔ559 cells = assay: Reversion of transformed morphologic phenotype of NIH3T3 transfectants expressing KIT (Δ559); assay type: cell-based, mouse; details: 20 μM, 24 h, phase-contrast microscope
Description: (§3) FIG. 7. Effects of Cpd1 on cell lines expressing constitutively activated forms of Kit. […] Cells were treated with 20 μM Cpd1 and photographed 24 h later under a phase-contrast microscope (original magnification X 100). B): Inhibition of Kit (Δ559) autophosphorylation and expression in NIH3T3 transfectants. Cells were treated with Cpd 1 at the indicated concentrations, for 72 h. Cell lysates were immunoprecipitated with anti-Kit antibody and subjected to Western blotting with anti-p-Tyr or anti-Kit antibodies. C): Inhibition of expression and autocrine loop-activated autophosphorylation of c-Kit in the SCLC cell line N592. Cells were treated with Cpd 1 at the indicated concentrations, for 24 h. Whole cell lysates were subjected to Western blotting with anti-Kit antibody or with an antibody specifically recognizing the tyrosine phosphorylated/activated Kit (p-Kit).
as §1, with “C634W. The MZ-CRC-1 cell line derived from MEN2B-associated MTC characterized by expression of the RET oncogene carrying the mutation M918T.” for “C634W.”

c-Kit = molecular target: T2, c-Kit (Homo sapiens, UniProt P10721); assay: c-Kit autophosphorylation and expression in SCLC cell line N592; assay type: cell-based; details: N592 cells, 24 h
T2 construct: endogenous in cells; host or cells: N592 (human small cell lung carcinoma)
Description: as §3, with “(p-Kit). […]” for “(p-Kit).”
as §2

T1 sequence (P07949 29-1114 C634W): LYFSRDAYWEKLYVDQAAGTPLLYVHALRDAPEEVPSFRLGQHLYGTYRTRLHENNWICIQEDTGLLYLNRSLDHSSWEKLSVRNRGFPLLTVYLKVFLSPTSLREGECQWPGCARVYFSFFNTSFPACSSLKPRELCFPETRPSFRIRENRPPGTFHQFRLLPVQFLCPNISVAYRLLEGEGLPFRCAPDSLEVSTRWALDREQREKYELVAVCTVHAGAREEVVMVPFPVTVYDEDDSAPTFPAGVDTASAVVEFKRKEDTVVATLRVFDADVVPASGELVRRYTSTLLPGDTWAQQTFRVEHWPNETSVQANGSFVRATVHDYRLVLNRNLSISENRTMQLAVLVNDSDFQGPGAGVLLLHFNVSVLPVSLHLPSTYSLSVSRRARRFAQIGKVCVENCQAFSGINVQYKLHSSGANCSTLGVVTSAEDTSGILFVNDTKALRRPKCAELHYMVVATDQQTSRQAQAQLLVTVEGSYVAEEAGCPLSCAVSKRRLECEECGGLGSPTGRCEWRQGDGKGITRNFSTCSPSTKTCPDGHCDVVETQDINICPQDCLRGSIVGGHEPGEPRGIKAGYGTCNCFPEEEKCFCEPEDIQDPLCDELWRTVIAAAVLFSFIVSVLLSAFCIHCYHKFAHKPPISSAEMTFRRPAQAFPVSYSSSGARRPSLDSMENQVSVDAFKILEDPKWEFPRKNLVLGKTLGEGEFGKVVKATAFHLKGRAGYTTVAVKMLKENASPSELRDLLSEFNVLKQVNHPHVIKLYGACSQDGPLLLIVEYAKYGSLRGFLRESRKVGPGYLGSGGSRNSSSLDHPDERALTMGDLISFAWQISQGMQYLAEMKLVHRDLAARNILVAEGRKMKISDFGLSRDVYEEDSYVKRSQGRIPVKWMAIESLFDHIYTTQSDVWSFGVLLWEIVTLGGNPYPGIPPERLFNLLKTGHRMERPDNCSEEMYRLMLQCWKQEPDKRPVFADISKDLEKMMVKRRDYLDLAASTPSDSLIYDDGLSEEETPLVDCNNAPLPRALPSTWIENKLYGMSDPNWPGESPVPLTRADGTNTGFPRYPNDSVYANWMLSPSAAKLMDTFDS
T2 sequence (P10721 26-976): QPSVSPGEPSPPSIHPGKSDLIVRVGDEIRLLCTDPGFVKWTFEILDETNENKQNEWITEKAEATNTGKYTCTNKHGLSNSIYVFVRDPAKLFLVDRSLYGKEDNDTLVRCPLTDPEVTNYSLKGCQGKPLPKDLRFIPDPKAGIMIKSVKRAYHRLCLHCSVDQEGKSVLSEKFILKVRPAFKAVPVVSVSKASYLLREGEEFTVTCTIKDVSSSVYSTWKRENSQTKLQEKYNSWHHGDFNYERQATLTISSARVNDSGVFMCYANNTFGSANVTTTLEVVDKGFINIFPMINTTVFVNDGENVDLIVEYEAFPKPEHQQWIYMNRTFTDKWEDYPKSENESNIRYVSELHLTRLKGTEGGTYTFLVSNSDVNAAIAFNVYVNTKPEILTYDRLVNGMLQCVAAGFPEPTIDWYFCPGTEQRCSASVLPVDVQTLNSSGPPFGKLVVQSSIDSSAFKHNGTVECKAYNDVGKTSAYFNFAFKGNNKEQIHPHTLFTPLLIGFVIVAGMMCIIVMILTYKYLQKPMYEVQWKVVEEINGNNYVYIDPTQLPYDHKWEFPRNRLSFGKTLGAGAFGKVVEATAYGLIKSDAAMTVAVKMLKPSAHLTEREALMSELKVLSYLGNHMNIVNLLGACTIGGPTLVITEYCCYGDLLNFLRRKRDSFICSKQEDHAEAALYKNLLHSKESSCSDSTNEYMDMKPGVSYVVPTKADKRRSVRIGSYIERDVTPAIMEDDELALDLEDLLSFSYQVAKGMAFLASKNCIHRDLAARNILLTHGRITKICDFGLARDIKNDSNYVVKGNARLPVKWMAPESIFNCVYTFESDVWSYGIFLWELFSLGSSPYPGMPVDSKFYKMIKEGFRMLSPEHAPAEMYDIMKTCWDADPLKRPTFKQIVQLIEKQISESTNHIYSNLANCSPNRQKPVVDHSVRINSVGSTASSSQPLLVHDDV

COc1cc2c(cc1OC)/C(=C\c1ccc(O)cc1)C(=O)N2 [Cpd 1, (E)-1,3-dihydro-5,6-dimethoxy-3-[(4-hydroxyphenyl)methylene]-2H-indol-2-one]
Tyrosine phosphorylation of Ret receptor (Ret/MEN2A(C634W)): dose-dependent inhibition
Ret receptor expression (Ret/MEN2A(C634W); highest concentrations): reduced expression
PDGF-R tyrosine phosphorylation (PDGF-R; 2N5A cells (autocrine stimulation), 72 h): dose-dependent drug-induced inhibition
PDGF-R expression (PDGF-R; 2N5A cells, 72 h): dose-dependent drug-induced inhibition
PDGF-R tyrosine phosphorylation (PDGF-R; Swiss 3T3 cells serum starved, 18 h, 1 nM PDGF 5 min): dose-dependent drug-induced inhibition
PDGF-R expression (PDGF-R; Swiss3T3 cells, 18 h): dose-dependent drug-induced inhibition
Concentration causing full inhibition of PDGF-R phosphorylation (PDGF-R; whole cells (FIG. 5)): higher than 15 μM
Transformed morphologic phenotype (NIH3T3^KITΔ559 cells): Reversion of the transformed morphologic phenotype
c-Kit autocrine loop-activated tyrosine phosphorylation (p-Kit) (c-Kit): dose-dependent drug-induced inhibition
c-Kit expression (c-Kit): dose-dependent drug-induced inhibition
